Four molecules from patent publication US5591648A, “Antibodies for mevalonic acid and methods for immunological determination of mevalonic acid by using them” (Ono Pharmaceutical Co., Ltd., priority 1993, dated 1997) can be followed below.

SMILES strings stand for the structures.

Common to all, as to format: binding
For assay [1], the system named is rabbit polyclonal antibody KLH-(12)R for mevalonic acid. Description: Cross-reaction of rabbit polyclonal antibody with analogues of mevalonic acid (radioimmunoassay, competition with R-[2-14C] mevalonic acid). As to conditions: for IC50: competition with 400 Bq R-[2-14C] mevalonic acid, overnight at 4° C., polyethylene glycol precipitation. As for the experimental part: After about 4 weeks, the rabbit was sensitized four times for each 2 weeks, by an emulsion of a PBS solution (500 μl) containing of the antigen for immunization prepared by the same procedure as hereinbefore described, and FICA (500 μl).
Blood was collected from the rabbit and to the serum prepared (50 μl) were added successively water (450 μl), 0.5% γ-globulin (80 μl) and a saturated aqueous solution of ammonium sulfate (580 μl), and then the mixture was centrifuged. The precipitation was dissolved into 50 mM PB (200 μl), and 50 mM PB (100 μl) containing R-[2-^14 C] mevalonic acid (400 Bq) was added thereto and the mixture was reacted overnight at 4° C. To the mixture was added successively 0.1M PB (200 μl) containing 0.5% bovine γ-globulin and 30% polyethylene glycol 6000 (register trademark, Wako Pure Chem Ind. Ltd. 600 μl), and then the mixture was centrifuged. Radioactivity of the precipitation was measured. […] This blood serum was called as polyclonal antibody, KLH-(12)R.
To 50 mM PB containing 400 Bq of R-[2-^14 C] mevalonic acid (100 μl) was added successively a solution of antibody (the mixture of the polyclonal antibody KLH-(12)R of the present invention, water, (0.5% γ-globulin and a saturated aqueous solution of ammonium sulfate in the ratio of 0.5:4.5:0.8:5.8 was centrifugalized, and the obtained precipitation was dissolved into a solution of 50 mM PB of four times as much as amount of the used polyclonal antibody, 100 μl) and a standard solution of mevalonic acid analogous compound as indicated following table (a solution of 50 mM PB, 100 μl) in the polystyrene tube, and then the mixture was allowed to stand overnight at 4° C. To the reaction mixture was added a solution of 0.5% γ-globulin (200 μl), and further added 30% polyethylene glycol 6000 (600 μl), and then the mixture was centrifuged. The precipitation was dissolved into 0.1N aqueous solution of sodium hydroxide, and added the liquid of scintillator (1 ml), and measured radioactivity.

Assay [2] has as its target mouse monoclonal antibody MHM-9H (IgG2b, k; hybridoma FERM BP-4524) for mevalonic acid. Description: Cross-reaction of mouse monoclonal antibody with analogues of mevalonic acid (enzyme immunoassay, solid phase first antibody). Conditions: for IC50: antibody MHM-9H coated 7 μg/ml, peroxidase-labeled antigen (18), overnight at 4° C., absorbance 450 nm; for cross-reactivity: antibody MHM-9H, relative to mevalonic acid = 100. As for the experimental part:
A solution of antibody (prepared in example 10 as hereinafter defined) was placed with 100 μl portions in a polystyrene 96 wells micro plate (prepared by NUNC Co.). The micro plate was allowed to stand for 1.5 hours at room temperature to be fixed. After the removal of an aqueous layer, 50 mM PB (400 μl) containing 0.5% BSA was added to block the inside of a wall of wells for 1 hour at room temperature.
After the removal of an aqueous layer, 50 mM PB (100 μl) containing mevalonic acid analogues of various concentrations was added. A solution of labeled antigen (prepared in example 10 as hereinafter defined) was added thereto with 100 μl portions and then the mixture was allowed to stand overnight at 4° C. After the removal of an aqueous layer, the dishes were washed twice with 50 mM PB (300 μl) containing 0.05% Tween 20. The substrate solution (prepared in example 9 as hereinafter, 250 μl) was added thereto and then the mixture was reacted for 15 minutes at room temperature. After the reaction was stopped by the addition of 1N sulfuric acid (50 μl), and the absorbance was measured at 450 nm.
A conjugate (18) of mevalonic acid derivative and a specer (prepared) in example 1(b). 175 nmol) was added to PBS (175 μl) containing a horse-radish peroxidase (prepared by Toyobo, 350 μg) and then the mixture was reacted for 2 hours at room temperature and then overnight at 4° C. The reaction mixture was dialyzed by a mixture of 1,4-dioxane and PBS (1:1) and then by PBS. An obtained enzyme-labeled antigen was diluted with 50 mM PB containing 0.1% BSA to become 1.25 ng/100 μl (as peroxidase protein).
Monoclonal antibody of the present invention, MHM-9H (prepared in example 5), was prepared by 50 mM PB to become 7 μg/ml.

For assay [3], the target named is mouse polyclonal antibody KLH-(12)M for mevalonic acid. The experiment in a line: Enzyme immunoassay of mevalonic acid, solid phase antigen method, mouse polyclonal antibody KLH-(12)M. As to conditions: KLH-(12)M diluted 10^4; coated BSA-(31) 0.01 μg/ml; second antibody and blocking (B). As to the method: (§1) An emulsion of PBS (100 μl) containing each of various antigens for immunization prepared in Example 2 (120 μg as BSA when a BSA-conjugate is used or 120 μg as KLH when a KLH-conjugate is used), and FCA (100 μl) was intraperitoneally administered to a male BALC/c mouse aged eight weeks. After about 2 weeks, the mouse was immunized five times every 2 weeks, by an emulsion of a PBS solution (100 μl) containing of the antigen for immunization and FICA (100 μl), prepared by the same procedure as hereinbefore described. After the second and fifth immunization with the antigen for immunization and FICA, the titer of antibody in blood was measured by the method shown below.
(§2) Anti-mouse IgG antibody labeled with the horse-radish peroxidase (prepared by Vector Co.), which was diluted with 50 mM PB containing 0.1% BSA 10000 times (a solution of the second antibody (B)), and which was diluted with 50 mM PB containing 0.1% OVA 10000 times (a solution of the second antibody (O)). […]
(§3) After the removal of an aqueous layer, a standard solution (100 μl) was added thereto. […] After a stopping solution (50 μl) added thereto, and the absorbance was measured at 450 nm.
(§4) On all mouse polyclonal antibody, standard calibration curves were made by platting B/B0 calculated from the measured absorbance.

In assay [4] the target is mouse polyclonal antibody KLH-(18)M for mevalonic acid. Description: Enzyme immunoassay of mevalonic acid, solid phase antigen method, mouse polyclonal antibody KLH-(18)M. As to conditions: KLH-(18)M diluted 2 × 10^3; coated BSA-(31) 0.01 μg/ml; second antibody and blocking (B). As for the experimental part: as §1, §2, §3, §4
For assay [5], the target named is mouse polyclonal antibody BSA-(19)M for mevalonic acid. The experiment in a line: Enzyme immunoassay of mevalonic acid, solid phase antigen method, mouse polyclonal antibody BSA-(19)M. Conditions: BSA-(19)M diluted 2 × 10^3; coated KLH-(31) 0.01 μg/ml; second antibody and blocking (O). As for the experimental part:
as §1, §2, §3, §4

Assay [6] has as its target mouse polyclonal antibody KLH-(31)M for mevalonic acid. The experiment in a line: Enzyme immunoassay of mevalonic acid, solid phase antigen method, mouse polyclonal antibody KLH-(31)M. Conditions: KLH-(31)M diluted 10^5; coated BSA-(12) 0.01 μg/ml; second antibody and blocking (B). As to the method:
as §1, §2, §3, §4

Assay [7] concerns the target mouse polyclonal antibody KLH-(39)M for mevalonic acid. Description: Enzyme immunoassay of mevalonic acid, solid phase antigen method, mouse polyclonal antibody KLH-(39)M. As to conditions: KLH-(39)M diluted 3 × 10^4; coated BSA-(12) 0.01 μg/ml; second antibody and blocking (B). As for the experimental part: as §1, §2, §3, §4
Assay [8] concerns the target mouse polyclonal antibody KLH-(45)M for mevalonic acid. The experiment in a line: Enzyme immunoassay of mevalonic acid, solid phase antigen method, mouse polyclonal antibody KLH-(45)M. Conditions: KLH-(45)M diluted 2 × 10^3; coated BSA-(12) 0.1 μg/ml; second antibody and blocking (B). As to the method: as §1, §2, §3, §4
For assay [9], the target named is mouse polyclonal antibody KLH-(53)M for mevalonic acid. Description: Enzyme immunoassay of mevalonic acid, solid phase antigen method, mouse polyclonal antibody KLH-(53)M. Conditions: KLH-(53)M diluted 5 × 10^2; coated BSA-(39) 1 μg/ml; second antibody and blocking (B). As for the experimental part:
as §1, §2, §3, §4

Where [10] appears, read: relative to mevalonic acid = 100.

As to `CC(O)(CC(=O)O)CC(=O)O` [3-Hydroxy-3-methylglutaric acid], the figures for the IC50 in assay [1] and in assay [2] were 500 μg/test and more than 250 μg/test, respectively. The cross-reactivity is on record as 0.013% in assay [1] (setting [10]) and less than 0.001% in assay [2].

In the case of `CC(CC(=O)O)CC(=O)O` [3-Methylglutaric acid], the IC50 in assay [1] is given as 1000 μg/test; in assay [2], more than 250 μg/test. In addition, the cross-reactivity is 0.0065% in assay [1] (setting [10]) and less than 0.001% in [2].

As to `O=C(O)CCCC(=O)O` [Glutaric acid], the IC50 is more than 6500 μg/test in [1] and more than 250 μg/test in assay [2]. Also, the cross-reactivity is listed as less than 0.001% in assay [1] (setting [10]); “less than 0.001%” in assay [1] (relative to mevalonic acid = 100, listed as glutaric acid); less than 0.001% in [2].

As to `C[C@@](O)(CCO)CC(=O)O` [Mevalonic acid], the IC50 is on record as 0.065 μg/test in assay [1]; 0.0025 μg/test in assay [2]; 0.5 μg/test in assay [3]; 0.3 μg/test in assay [4]; 3.6 μg/test in assay [5]; 0.7 μg/test in assay [6]. Moreover, the values for the IC50 in [7], in [8] and in [9] were 0.1 μg/test, 4.0 μg/test and 6.0 μg/test, respectively. Further, the cross-reactivity in [1] (setting [10]) and in assay [2] was 100% in each case.
